Test results reported in patent publication US20170349593A1, “BTK INHIBITORS” (MERCK SHARP & DOHME CORP., priority 2014, published 2017).

Assays:
[1] = test system: adenosine uptake into HeLa cells; assay: [3H]Adenosine uptake assay; type: cell-based; conditions: Homo sapiens; accumulation of [3H]adenosine into HeLa cells; concentration range 10 μM to 0.032 nM; read-out: ADU inhibition IC50
Method: Compounds are also screened in an adenosine uptake functional cellular assay using the protocol described below:
Adenosine uptake activity was determined by monitoring the accumulation of tritiated adenosine into HeLa cells (ATCC catalog #CCL-2) using a PMT-based radiometric detection instrument. In this assay, the potency (IC50) of each compound was determined from a ten point (1:3 serial dilution; final compound concentration range in assay from 10 μM to 0.032 nM) titration curve using the following outlined procedure. To each well of a 96-well CytoStar-T scintillating microplate (Perkin Elmer Catalog #RPNQ0163), 25 000 HeLa cells in 100 μL of growth medium comprising: Minimum Essential Media (Life Technologies Catalog #11095-080)+10% (v/v) foetal bovine serum (FBS; Sigma Aldrich Catalog #F2442) was added. These cells were incubated overnight at 37° C. in a humidified atmosphere with 5% (v/v) CO2. After this time the growth medium was removed and replaced with 40 μL assay medium comprising: Hanks balanced salts solution (HBSS; Thermo Fisher Catalog # SH30268.01)+5% (v/v) FBS. Compound stock solutions in DMSO were diluted in assay medium to 2.5× final compound concentration maintaining a constant DMSO concentration of 0.25% (v/v). 40 μL of compound in assay medium was dispensed into individual wells of the Cytostar-T plates and the plates were incubated for 30 minutes under ambient laboratory conditions. Following this incubation, 20 μL of 500 nM [^3H] adenosine (American Radiolabeled Chemicals Inc. Catalog #ART0287) in assay medium was added and incubated for a further 60 minutes under ambient laboratory conditions. The amount of radiolabel accumulation was then determined using a Perkin Elmer Topcount NXT microplate reader. In brief, HeLa cells adhere to the bottom of the Cytostar-T plate, uptake of [^3H]adenosine into these cells brings the radiolabel into sufficient proximity to excite the scintillant in the base of the plates. These events are captured by single PMT, time-resolved coincidence counting. IC50 values were determined by 4 parameter robust fit of counts per second values vs. (Log10)) compound concentrations.

[2] = target: T1, BTK enzyme (recombinant full-length BTK, hBTK) (Homo sapiens, UniProt Q06187); assay: Btk enzyme activity assay (LANCE TR-FRET); type: biochemical; conditions: 50 pM hBTK, 25 μM ATP, 60 minute compound and enzyme incubation, concentration range 1 μM to 0.017 nM, read-out: BTK binding IC50
T1 construct: recombinant protein from baculovirus-transfected S 19 cells: full-length BTK, 6 HIS-tag cleaved; 6 HIS-tag (cleaved yes); made in house
T1 sequence (Q06187 whole entry): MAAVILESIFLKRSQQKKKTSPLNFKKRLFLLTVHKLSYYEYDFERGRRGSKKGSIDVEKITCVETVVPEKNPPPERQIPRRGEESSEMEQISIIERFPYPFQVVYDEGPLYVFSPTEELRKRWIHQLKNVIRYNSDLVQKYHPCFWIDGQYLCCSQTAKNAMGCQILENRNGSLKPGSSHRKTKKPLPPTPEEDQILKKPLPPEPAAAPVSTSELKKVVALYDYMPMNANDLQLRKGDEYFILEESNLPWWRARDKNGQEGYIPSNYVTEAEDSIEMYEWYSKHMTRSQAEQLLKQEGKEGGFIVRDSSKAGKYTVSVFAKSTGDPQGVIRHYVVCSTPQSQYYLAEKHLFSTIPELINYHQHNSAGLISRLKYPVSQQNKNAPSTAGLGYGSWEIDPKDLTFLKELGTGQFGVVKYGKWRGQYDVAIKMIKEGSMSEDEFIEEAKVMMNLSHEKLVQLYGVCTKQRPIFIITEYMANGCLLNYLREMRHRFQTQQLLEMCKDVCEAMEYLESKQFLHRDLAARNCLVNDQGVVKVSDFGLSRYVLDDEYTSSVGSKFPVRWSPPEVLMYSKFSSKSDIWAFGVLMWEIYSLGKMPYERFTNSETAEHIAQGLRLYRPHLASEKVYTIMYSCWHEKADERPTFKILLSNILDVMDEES

IC50 [1]	IC50 [2]	Compound
≥ 10000 nM	2.65 nM	COc1cc(C(=O)Nc2cc(C(F)(F)F)ccn2)ccc1-c1nc([C@H]2CN(C(=O)C3CN(C(=O)C4CC4)C3)[C@@H](C)CO2)n2ccnc(N)c12 [Example 34, 4-{8-amino-3-[(2R,5S)-4-{[1-(cyclopropylcarbonyl)azetidin-3-yl]carbonyl}-5-methylmorpholin-2-yl]imidazo[1,5-a]pyrazin-1-yl}-3-methoxy-N-[4-(trifluoromethyl)pyridin-2-yl]benzamide]
747 nM	3.21 nM	COc1cc(C(=O)Nc2cc(C(F)(F)F)ccn2)ccc1-c1nc([C@H]2CN(C(=O)C3CN(Cc4c(F)cccc4F)C3)[C@@H](C)CO2)n2ccnc(N)c12 [Example 35, 4-{8-amino-3-[(2R,5S)-4-{[1-(2,6-difluorobenzyl)azetidin-3-yl]carbonyl}-5-methylmorpholin-2-yl]imidazo[1,5-a]pyrazin-1-yl}-3-methoxy-N-[4-(trifluoromethyl)pyridin-2-yl]benzamide]
1680 nM	9.31 nM	COc1cc(C(=O)Nc2cc(C(F)(F)F)ccn2)ccc1-c1nc([C@H]2CN(C=O)[C@@H](C)CO2)n2ccnc(N)c12 [Example 36, 4-{8-amino-3-[(2R,5S)-4-formyl-5-methylmorpholin-2-yl]imidazo[1,5-a]pyrazin-1-yl}-3-methoxy-N-[4-(trifluoromethyl)pyridin-2-yl]benzamide]
702 nM	2.77 nM	COc1cc(C(=O)Nc2cc(C(F)(F)F)ccn2)ccc1-c1nc([C@H]2CN(C(=O)C3CN(Cc4ccccc4F)C3)[C@@H](C)CO2)n2ccnc(N)c12 [Example 37, 4-{8-amino-3-[(2R,5S)-4-{[1-(2-fluorobenzyl)azetidin-3-yl]carbonyl}-5-methylmorpholin-2-yl]imidazo[1,5-a]pyrazin-1-yl}-3-methoxy-N-[4-(trifluoromethyl)pyridin-2-yl]benzamide]
2800 nM	2.25 nM	COc1cc(C(=O)Nc2cc(C(F)(F)F)ccn2)ccc1-c1nc([C@H]2CN(C(=O)[C@H](C)O)[C@@H](C)CO2)n2c(Cl)cnc(N)c12 [Example 38, 4-(8-amino-5-chloro-3-{(2R,5S)-4-[(2S)-2-hydroxypropanoyl]-5-methylmorpholin-2-yl}imidazo[1,5-a]pyrazin-1-yl)-3-methoxy-N-[4-(trifluoromethyl)pyridin-2-yl]benzamide]
3800 nM	5.87 nM	CCOc1cc(C(=O)Nc2cc(C(F)(F)F)n(C)n2)ccc1-c1nc([C@H]2CN(C3CCOCC3)[C@@H](C)CO2)n2ccnc(N)c12 [Example 39, 4-{8-amino-3-[(2R,5S)-5-methyl-4-(tetrahydro-2H-pyran-4-yl)morpholin-2-yl]imidazo[1,5-a]pyrazin-1-yl}-3-ethoxy-N-[1-methyl-5-(trifluoromethyl)-1H-pyrazol-3-yl]benzamide]
4620 nM	5.87 nM	CCOc1cc(C(=O)Nc2cc(C(F)(F)F)n(C)n2)ccc1-c1nc([C@H]2CN(C3CCOCC3)[C@@H](C)CO2)n2c(Cl)cnc(N)c12 [Example 40, 4-{8-amino-5-chloro-3-[(2R,5S)-5-methyl-4-(tetrahydro-2H-pyran-4-yl)morpholin-2-yl]imidazo[1,5-a]pyrazin-1-yl}-3-ethoxy-N-[1-methyl-5-(trifluoromethyl)-1H-pyrazol-3-yl]benzamide]
383 nM	0.626 nM	C[C@H]1CO[C@@H](c2nc(-c3ccc(C(=O)Nc4cc(C(F)(F)F)ccn4)cc3F)c3c(N)ncc(Cl)n23)CN1C(=O)C1CC1 [Example 41, 4-{8-amino-5-chloro-3-[(2R,5S)-4-(cyclopropylcarbonyl)-5-methylmorpholin-2-yl]imidazo[1,5-a]pyrazin-1-yl}-3-fluoro-N-[4-(trifluoromethyl)pyridin-2-yl]benzamide]
364 nM	0.4 nM	C[C@H](O)C(=O)N1C[C@H](c2nc(-c3ccc(C(=O)Nc4cc(C(F)(F)F)ccn4)cc3F)c3c(N)ncc(Cl)n23)OC[C@@H]1C [Example 42, 4-(8-amino-5-chloro-3-{(2R,5S)-4-[(2S)-2-hydroxypropanoyl]-5-methylmorpholin-2-yl}imidazo[1,5-a]pyrazin-1-yl)-3-fluoro-N-[4-(trifluoromethyl)pyridin-2-yl]benzamide]
562 nM	0.784 nM	C[C@H]1CO[C@@H](c2nc(-c3ccc(C(=O)Nc4cc(C(F)(F)F)ccn4)cc3)c3c(N)ncc(Cl)n23)CN1C(=O)C1CC1 [Example 43, 4-{8-amino-5-chloro-3-[(2R,5S)-4-(cyclopropylcarbonyl)-5-methylmorpholin-2-yl]imidazo[1,5-a]pyrazin-1-yl}-N-[4-(trifluoromethyl)pyridin-2-yl]benzamide]
362 nM	0.358 nM	C[C@H]1CO[C@@H](c2nc(-c3ccc(C(=O)Nc4cc(C5CC5)ccn4)cc3F)c3c(N)ncc(Cl)n23)CN1C1CCOCC1 [Example 44, 4-{8-amino-5-chloro-3-[(2R,5S)-5-methyl-4-(tetrahydro-2H-pyran-4-yl)morpholin-2-yl]imidazo[1,5-a]pyrazin-1-yl}-N-(4-cyclopropylpyridin-2-yl)-3-fluorobenzamide]
512 nM	0.68 nM	C[C@H](O)C(=O)N1C[C@H](c2nc(-c3ccc(C(=O)Nc4cc(C(F)(F)F)ccn4)cc3)c3c(N)ncc(Cl)n23)OC[C@@H]1C [Example 45, 4-(8-amino-5-chloro-3-{(2R,5S)-4-[(2S)-2-hydroxypropanoyl]-5-methylmorpholin-2-yl}imidazo[1,5-a]pyrazin-1-yl)-N-[4-(trifluoromethyl)pyridin-2-yl]benzamide]
2160 nM	1.94 nM	COc1cc(C(=O)Nc2cc(C(F)(F)F)ccn2)ccc1-c1nc([C@H]2CN(C3CCOCC3)[C@@H](C)CO2)n2c(Cl)cnc(N)c12 [Example 46, 4-{8-amino-5-chloro-3-[(2R,5S)-5-methyl-4-(tetrahydro-2H-pyran-4-yl)morpholin-2-yl]imidazo[1,5-a]pyrazin-1-yl}-3-methoxy-N-[4-(trifluoromethyl)pyridin-2-yl]benzamide]
6090 nM	5.59 nM	COc1cc(C(=O)Nc2cc(C(F)(F)F)ccn2)ccc1-c1nc([C@H]2CN(C(=O)C3CC3)[C@@H](C)CO2)n2c(Cl)cnc(N)c12 [Example 47, 4-{8-amino-5-chloro-3-[(2R,5S)-4-(cyclopropylcarbonyl)-5-methylmorpholin-2-yl]imidazo[1,5-a]pyrazin-1-yl}-3-methoxy-N-[4-(trifluoromethyl)pyridin-2-yl]benzamide]
397 nM	0.303 nM	C[C@H]1CO[C@@H](c2nc(-c3ccc(C(=O)Nc4cc(C(F)(F)F)ccn4)cc3F)c3c(N)ncc(Cl)n23)CN1C1CCOCC1 [Example 48, 4-{8-amino-5-chloro-3-[(2R,5S)-5-methyl-4-(tetrahydro-2H-pyran-4-yl)morpholin-2-yl]imidazo[1,5-a]pyrazin-1-yl}-3-fluoro-N-[4-(trifluoromethyl)pyridin-2-yl]benzamide]
1780 nM	1.74 nM	COc1cc(C(=O)Nc2cc(C(F)(F)F)ccn2)ccc1-c1nc([C@H]2CN(C(=O)C3CCOCC3)[C@@H](C)CO2)n2ccnc(N)c12 [Example 49, 4-{8-amino-3-[(2R,5S)-5-methyl-4-(tetrahydro-2H-pyran-4-ylcarbonyl)morpholin-2-yl]imidazo[1,5-a]pyrazin-1-yl}-3-methoxy-N-[4-(trifluoromethyl)pyridin-2-yl]benzamide]
2260 nM	2.17 nM	COCCC(=O)N1C[C@H](c2nc(-c3ccc(C(=O)Nc4cc(C(F)(F)F)ccn4)cc3OC)c3c(N)nccn23)OC[C@@H]1C [Example 50, 4-{8-amino-3-[(2R,5S)-4-(3-methoxypropanoyl)-5-methylmorpholin-2-yl]imidazo[1,5-a]pyrazin-1-yl}-3-methoxy-N-[4-(trifluoromethyl)pyridin-2-yl]benzamide]
1410 nM	4.31 nM	COc1cc(C(=O)Nc2cc(C(F)(F)F)ccn2)ccc1-c1nc([C@H]2CN(C(=O)[C@H](C)OC)[C@@H](C)CO2)n2ccnc(N)c12 [Example 51, 4-(8-amino-3-{(2R,5S)-4-[(2S)-2-methoxypropanoyl]-5-methylmorpholin-2-yl}imidazo[1,5-a]pyrazin-1-yl)-3-methoxy-N-[4-(trifluoromethyl)pyridin-2-yl]benzamide]
1990 nM	2.26 nM	COc1cc(C(=O)Nc2cc(C(F)(F)F)ccn2)ccc1-c1nc([C@H]2CN(C(=O)[C@H](C)O)[C@@H](C)CO2)n2ccnc(N)c12 [Example 52, 4-(8-amino-3-{(2R,5S)-4-[(2S)-2-hydroxypropanoyl]-5-methylmorpholin-2-yl}imidazo[1,5-a]pyrazin-1-yl)-3-methoxy-N-[4-(trifluoromethyl)pyridin-2-yl]benzamide]
